Results as given in publication PMC6151589, “Identification of Optically Active Pyrimidine Derivatives as Selective 5-HT2C Modulators” (Molecules : A Journal of Synthetic Chemistry and Natural …, 2017).

Tests used:
5-HT2A = target: T1, 5-HT2A (Homo sapiens, UniProt P28223); assay: biochemical; design: species or system HEK293 or CHO; competitive radioligand binding on crude membranes, filtration and scintillation counting
T1 construct: gene HTR2A; human recombinant receptor; crude membrane fractions of transfected HEK293 or CHO cells
Protocol: (§1) Eleven dilutions (5 × assay concentration) of the test and reference compounds (Table S1) were prepared in standard binding buffer (50 mM tris(hydroxymethyl)-aminomethane-HCl (Tris-HCl), 10 mM MgCl2, 1 mM ethylenediaminetetraacetate (EDTA), pH 7.4) by serial dilution: 0.05 nM, 0.5 nM, 1.5 nM, 5 nM, 15 nM, 50 nM, 150 nM, 500 nM, 1.5 μM, 5 μM, and 50 μM. The radioligand (Table S3) was diluted to five times the assay concentration in standard binding buffer. Aliquots ([…]) of the radioligand were dispensed into the wells of a 96-well plate containing […] of standard binding buffer. Triplicate aliquots ([…]) of the test and reference compound dilutions were then added. Finally, crude membrane fractions ([…]) of cells (HEK293 or CHO) expressing human recombinant receptors were dispensed into each well. A total of […] of the reaction mixtures was incubated at room temperature and shielded from light for 1.5 h, and was then harvested by rapid filtration onto Whatman GF/B glass fiber filters presoaked with 0.3% polyethyleneimine, by using a 96-well Brandel harvester (Gaithersburg, MD, USA). Four rapid washes were performed with chilled standard binding buffer (500 mL) to decrease nonspecific binding. Filters were placed in 6 mL scintillation tubes and allowed to dry overnight. The next day, 4-mL of EcoScint scintillation cocktail (National Diagnostics) was added to each tube. The tubes were capped, labeled, and counted by liquid scintillation counting. The filter mats were dried, and the scintillant was melted onto the filters, then the radioactivity retained on the filters was counted in a Microbeta scintillation counter. The IC50 values were obtained by using the Prism 4.0 program (GraphPad Software, La Jolla, CA, USA) and were converted into Ki values. Each compound was tested at least in triplicate. With each enantiomer (R)- or (S)-5d and 5e in hand, the optically active pyrimidine derivatives 4d–4e were synthesized following the same reaction sequences (Scheme 3). Finally, compounds 4d and 4e were assessed for their binding affinity to 5-HT2 receptor subtypes by radioligand binding assays. […] A further evaluation of these compounds for other 5-HT receptor subtypes was also performed and is provided in the supplementary data (Table S2). […] Considering the potencies and selectivities of 4, we can conclude that (R,R)-4e would be a viable candidate for a selective 5-HT2C modulator.

5-HT2C = target: T2, 5-HT2C (Homo sapiens, UniProt P28335); assay: radioligand displacement, membranes; assay type: binding
T2 construct: gene HTR2C; human recombinant receptor; crude membrane fractions of transfected cells (CHO-K1; HEK293 or CHO)
T2 sequence (P28335 33-458): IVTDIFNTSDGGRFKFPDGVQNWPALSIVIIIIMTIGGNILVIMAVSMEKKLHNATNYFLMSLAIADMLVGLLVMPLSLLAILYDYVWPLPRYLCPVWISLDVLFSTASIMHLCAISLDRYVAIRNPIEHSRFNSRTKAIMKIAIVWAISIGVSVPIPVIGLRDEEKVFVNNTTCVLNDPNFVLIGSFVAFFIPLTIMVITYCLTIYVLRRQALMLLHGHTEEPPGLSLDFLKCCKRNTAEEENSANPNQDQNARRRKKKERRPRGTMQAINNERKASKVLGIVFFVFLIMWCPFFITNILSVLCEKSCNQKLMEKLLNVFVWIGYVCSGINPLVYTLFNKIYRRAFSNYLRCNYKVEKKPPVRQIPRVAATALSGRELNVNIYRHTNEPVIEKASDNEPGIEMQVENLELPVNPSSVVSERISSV
From the text: radioligand displacement, membranes on 5-HT2C

5-HT5A = target: T3, 5-HT5A (Homo sapiens, UniProt P47898); assay: biochemical; design: species or system HEK293 or CHO; competitive radioligand binding on crude membranes, filtration and scintillation counting
T3 construct: gene HTR5A; human recombinant receptor, crude membranes of HEK293 or CHO cells
Protocol: as §1, with “[…]” for “liquid”

T3 sequence (P47898 whole entry): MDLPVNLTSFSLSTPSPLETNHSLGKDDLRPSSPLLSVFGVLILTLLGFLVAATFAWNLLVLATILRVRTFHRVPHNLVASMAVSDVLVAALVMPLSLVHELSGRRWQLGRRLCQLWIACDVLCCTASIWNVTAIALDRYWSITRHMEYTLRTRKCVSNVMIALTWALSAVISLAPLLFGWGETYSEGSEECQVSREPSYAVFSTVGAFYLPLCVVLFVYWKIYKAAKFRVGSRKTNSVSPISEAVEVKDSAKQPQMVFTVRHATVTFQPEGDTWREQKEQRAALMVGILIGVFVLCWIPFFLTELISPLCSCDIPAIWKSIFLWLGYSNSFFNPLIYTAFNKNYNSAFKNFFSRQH
T1 sequence (P28223 whole entry): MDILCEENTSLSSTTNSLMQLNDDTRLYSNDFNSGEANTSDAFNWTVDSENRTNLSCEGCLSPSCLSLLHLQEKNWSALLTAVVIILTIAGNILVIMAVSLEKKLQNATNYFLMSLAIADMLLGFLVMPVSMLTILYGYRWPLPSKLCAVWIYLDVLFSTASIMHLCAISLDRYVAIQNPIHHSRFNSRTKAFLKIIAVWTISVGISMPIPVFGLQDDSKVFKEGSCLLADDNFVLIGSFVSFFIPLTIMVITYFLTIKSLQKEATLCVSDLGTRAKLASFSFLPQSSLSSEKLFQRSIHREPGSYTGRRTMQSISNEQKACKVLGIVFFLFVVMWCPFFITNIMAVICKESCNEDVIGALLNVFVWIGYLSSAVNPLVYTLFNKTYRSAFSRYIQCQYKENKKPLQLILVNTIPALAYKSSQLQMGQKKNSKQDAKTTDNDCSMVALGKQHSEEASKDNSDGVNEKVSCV

SMILES | inhibition at 10 µM (5-HT2A) [%] | Ki (5-HT2C) [nM] | inhibition at 10 µM (5-HT5A) [%]
C[C@H](Oc1nc(N2CCNC[C@H]2C)ncc1F)c1cccc(F)c1 [(S,R)-4d, 5-Fluoro-4-((S)-1-(3-fluorophenyl)ethoxy)-2-((R)-2-methylpiperazin-1-yl)pyrimidine] | 82.4 | 14 | 22.8
C[C@@H]1CNCCN1c1ncc(F)c(O[C@H](C)c2cccc(F)c2)n1 [(R,R)-4d, 5-Fluoro-4-((R)-1-(3-fluorophenyl)ethoxy)-2-((R)-2-methylpiperazin-1-yl)pyrimidine] | 93.3 | 1.2 | 28.1
C[C@H](Cc1cccc(F)c1)Oc1nc(N2CCNC[C@H]2C)ncc1F [compound 3, pyrimidine analogue 3] | 95.6 | – | 37.4
C[C@H](Oc1nc(N2CCNC[C@H]2C)ncc1F)c1ccc(F)cc1 [(S,R)-4e, 5-Fluoro-4-((S)-1-(4-fluorophenyl)ethoxy)-2-((R)-2-methylpiperazin-1-yl)pyrimidine] | 64.8 | 23 | 5.2
C[C@@H]1CNCCN1c1ncc(F)c(O[C@H](C)c2ccc(F)cc2)n1 [(R,R)-4e, 5-Fluoro-4-((R)-1-(4-fluorophenyl)ethoxy)-2-((R)-2-methylpiperazin-1-yl)pyrimidine] | – | 4 | 26.7
